The values below come from ChEMBL document CHEMBL1128544, “2-[N'-(3-arylallylidene)hydrazino]adenosines showing A2a adenosine agonist properties and vasodilation activity” (J Med Chem, 1995).

Experiment [1] concerns the target T1, Adenosine receptor A1 (Rattus norvegicus, UniProt P25099).
T1 sequence (P25099 whole entry): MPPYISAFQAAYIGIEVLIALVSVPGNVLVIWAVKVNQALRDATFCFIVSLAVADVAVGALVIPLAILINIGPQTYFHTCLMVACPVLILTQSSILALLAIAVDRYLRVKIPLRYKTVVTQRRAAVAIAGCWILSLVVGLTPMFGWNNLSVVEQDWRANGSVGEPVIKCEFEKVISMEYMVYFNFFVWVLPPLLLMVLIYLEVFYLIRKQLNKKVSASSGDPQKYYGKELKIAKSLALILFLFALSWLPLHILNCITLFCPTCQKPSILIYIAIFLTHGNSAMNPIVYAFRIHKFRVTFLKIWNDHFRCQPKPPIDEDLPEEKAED
Kind of experiment: Activity at Adenosine A1 receptor of rat atria. It is filed as functional.

For experiment [2], the target named is T1, Adenosine receptor A1.
Description: Displacement of [3H]CHA from Adenosine A1 receptor of rat brain
Experiment [3] deals with T2, Adenosine receptor A2a (Rattus norvegicus, UniProt P30543).
T2 sequence (P30543 whole entry): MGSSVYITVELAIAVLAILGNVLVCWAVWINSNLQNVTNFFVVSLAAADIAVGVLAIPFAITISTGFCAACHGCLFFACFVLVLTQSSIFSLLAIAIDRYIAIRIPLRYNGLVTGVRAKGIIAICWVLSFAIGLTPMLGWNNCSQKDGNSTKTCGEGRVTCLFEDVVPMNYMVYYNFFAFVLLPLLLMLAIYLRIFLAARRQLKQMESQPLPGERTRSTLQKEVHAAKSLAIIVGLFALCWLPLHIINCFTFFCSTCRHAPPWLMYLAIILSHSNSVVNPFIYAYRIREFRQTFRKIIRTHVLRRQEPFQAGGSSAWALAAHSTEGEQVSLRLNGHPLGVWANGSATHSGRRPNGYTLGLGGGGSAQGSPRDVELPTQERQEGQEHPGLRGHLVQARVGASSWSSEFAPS
Experiment [4] addresses T2, Adenosine receptor A2a. The source holds these as a separate data set.
Description: Functional activity at Adenosine A2A receptor as vasorelaxation of rat aorta

One may read the EC50 as the concentration at which the effect is half-maximal. A lower EC50 goes with an effect from little substance. The term Ki denotes a measure of affinity in units of concentration, obtained from inhibition or displacement. For `Nc1nc(N/N=C/C=C(c2ccccc2)c2ccccc2)nc2c1ncn2[C@@H]1O[C@H](CO)[C@@H](O)[C@H]1O`, the EC50 at Adenosine receptor A1 [1] is > 1860 nM; on Adenosine receptor A2a [4], 704 nM. In addition, the Ki at Adenosine receptor A1 [2] was 64 nM; on Adenosine receptor A2a [3], > 1000 nM.
In the same order, the values of `CN(C)c1ccc(/C=C/C=N/Nc2nc(N)c3ncn([C@@H]4O[C@H](CO)[C@@H](O)[C@H]4O)c3n2)cc1` are 866 nM, 728 nM, 101 nM and 170 nM.
Turning to `COc1ccccc1/C=C/C=N/Nc1nc(N)c2ncn([C@@H]3O[C@H](CO)[C@@H](O)[C@H]3O)c2n1`, the EC50 came out at 1970 nM on Adenosine receptor A1 [1] and 529 nM on Adenosine receptor A2a [4]. The figures for the Ki on Adenosine receptor A1 [2] and at Adenosine receptor A2a [3] were 264 nM and 384 nM, respectively.
In the same order, the values of `Nc1nc(N/N=C/C=C/c2ccco2)nc2c1ncn2[C@@H]1O[C@H](CO)[C@@H](O)[C@H]1O` are 4340 nM, 800 nM, 1670 nM and 83 nM.
In the same order, the values of `Nc1nc(N/N=C/C=C/c2ccc([N+](=O)[O-])cc2)nc2c1ncn2[C@@H]1O[C@H](CO)[C@@H](O)[C@H]1O` are > 10000 nM, 482 nM, 524 nM and 23 nM.
In the same order, the values of `Nc1nc(N/N=C/C=C/c2ccccc2[N+](=O)[O-])nc2c1ncn2[C@@H]1O[C@H](CO)[C@@H](O)[C@H]1O` are > 10000 nM, 638 nM, 935 nM and 54 nM.
Regarding `COc1cc(/C=C/C=N/Nc2nc(N)c3ncn([C@@H]4O[C@H](CO)[C@@H](O)[C@H]4O)c3n2)ccc1O`, the EC50 at Adenosine receptor A1 [1] was 4890 nM; on Adenosine receptor A2a [4], 281 nM. The Ki at Adenosine receptor A1 [2] turned out to be 545 nM; on Adenosine receptor A2a [3] it was 27 nM.
In the same order, the values of `COc1ccc(/C=C/C=N/Nc2nc(N)c3ncn([C@@H]4O[C@H](CO)[C@@H](O)[C@H]4O)c3n2)cc1` are > 10000 nM, 677 nM, 425 nM and 59 nM.
In the same order, the values of `Nc1nc(N/N=C/C=C/c2ccccc2)nc2c1ncn2[C@@H]1O[C@H](CO)[C@@H](O)[C@H]1O` are > 10000 nM, 269 nM, 1050 nM and 38 nM.
In the same order, the values of `Nc1nc(N/N=C/c2ccco2)nc2c1ncn2[C@@H]1O[C@H](CO)[C@@H](O)[C@H]1O` are > 10000 nM, 195 nM, 1850 nM and 42 nM.
For `Cc1ccc(/C=N/Nc2nc(N)c3ncn(C4O[C@H](CO)[C@@H](O)[C@H]4O)c3n2)cc1` (some centres undefined), the 50% effective concentration (EC50) at Adenosine receptor A1 [1] was > 10000 nM; at Adenosine receptor A2a [4] it was 747 nM. Further, the Ki on Adenosine receptor A1 [2] is 1770 nM; on Adenosine receptor A2a [3], 29 nM.
